# Where two headings read alike, the source gives them in different places.
# Key:
# beagle dogs [1] = assay: Pathologic (histopathological) examination of organs, brain and cardiac conduction system; type: in vivo, dog
# Method: (§1) The first day of treatment was regarded as day one in the study. […] Oral administration was performed about 2 h after feeding. ARM was administered by a bolus intramuscular infusion through a 25-gauge needle at a constant volume of 2 ml kg^−1 once a day into the gluteal and infraspinous muscles. Two dogs of each sex from each group were allowed to recover without further treatment for an additional 4 weeks.
# Termination of treatment was scheduled to occur on weeks 4, 8 (two interim necropsies) and 13, followed by a 4-week recovery period. For pathological examinations, the animals were euthanized within 24 h of the final drug administration with sodium pentobarbital, followed by exsanguination via the femoral artery. A gross necropsy was performed, including a thorough visual examination of all the internal organs. Weights were obtained for the brain, heart, liver, spleen, lung, kidneys, adrenals, thyroid/parathyroids, thymus, pancreas and ovaries/testes/prostate, and organ-to-body weight ratios were calculated. For each animal, representative samples from approximately 48 organs and tissues were taken and fixed in neutral buffered 10% formalin, except for the sternum, which was retained in Helly’s fixative (1000 ml distilled water, 25 g potassium dichromate, 10 g sodium sulfate, 50 g mercuric chloride, 50 ml 40% formaldehyde). Histopathological sections of all samples were prepared by embedding in paraffin wax, multiple-sectioning and staining with hematoxylin and eosin (HE). Samples of the left ventricular myocardium, right lateral hepatic lobe and right kidney from two animals of each sex from each group were fixed immediately after exsanguination in 2.5% glutaraldehyde, post-fixed in 1.0% osmium tetroxide, and embedded in plastic. Ultrathin liver, kidney and heart sections were examined with a Hitachi H-600 transmission electron microscope (TEM). All other tissues were examined by light microscopy.
# After removal, the cardiac conduction system, including the sinoatrial node (SAN) and atrioventricular node (AVN), were selected by the Palate method. The brain was sectioned at multiple transverse levels to obtain susceptible brain regions. To improve the definition of the brain lesions, toluidine stains were applied on selected duplicate sections, and all preparations were examined under a light microscope. For pathologic examinations, degenerative neurons were evaluated on three randomly selected brain sections. The adjacent fields of neurons in each selected section were counted using a microscope at a magnification of 200×. […] The severity of the neuropathological lesions was defined as follows: the total number of neuropathological lesions per section area yielded a severity score from 0 to 4, where 0 = unaffected, 1 = minimally affected neurons with one degenerative cell per section, 2 = two degenerative cells per section, 3 = three degenerative cells per section and 4 = multiple degenerative areas per section.
# [2] = parameters: method as in PMID 11060779; conditions: cited from earlier work
# Rats = system: Rats; parameters: method as in Akinlolu and Shokunbi, 2008 [41]; conditions: 25 mg kg^−1 per day, i.m. for 7 days, ref Akinlolu and Shokunbi, 2008 [41]; cited from earlier work
# [3] = Toxicokinetic analysis of plasma drug levels (HPLC); type: in vivo, dog; conditions: for AUC: 6 mg kg^−1 daily, ART p.o.; for maximum plasma concentration after dosing: daily i.m. 6 mg kg^−1
# Method: as §1
# For toxicokinetic analysis, blood samples were collected on weeks 1, 2, 4, 8 and 13 at 0 (before dosing), 0.5, 1, 2, 4, 8, 12 and 24 h after dosing. Approximately 1 ml blood was drawn from the antebrachial, cephalic or jugular vein of three animals of each sex per time point and deposited into heparinized tubes for immediate centrifugation at 3000 rpm at 4°C for 10 min. The plasma was then immediately transferred to 2 ml polypropylene tubes and stored on dry ice. Samples were stored at −80°C until HPLC analysis.
# Dogs = system: Dogs; parameters: method as in Classen et al., 1999 [30]; conditions: 20 mg kg^−1 per day, i.m. for 30 days, ref Classen et al., 1999 [30]; cited from earlier work
# beagle dogs [4] = assay: Organ weights at necropsy; type: in vivo, dog
# Method: as §1
# (§2) Termination of treatment was scheduled to occur on weeks 4, 8 (two interim necropsies) and 13, followed by a 4-week recovery period. For pathological examinations, the animals were euthanized within 24 h of the final drug administration with sodium pentobarbital, followed by exsanguination via the femoral artery. A gross necropsy was performed, including a thorough visual examination of all the internal organs. Weights were obtained for the brain, heart, liver, spleen, lung, kidneys, adrenals, thyroid/parathyroids, thymus, pancreas and ovaries/testes/prostate, and organ-to-body weight ratios were calculated. For each animal, representative samples from approximately 48 organs and tissues were taken and fixed in neutral buffered 10% formalin, except for the sternum, which was retained in Helly’s fixative (1000 ml distilled water, 25 g potassium dichromate, 10 g sodium sulfate, 50 g mercuric chloride, 50 ml 40% formaldehyde). […]
# beagle dogs [5] = assay: Clinical chemistry in the 13-week repeated-dose dog study; type: in vivo
# Method: as §1
# Blood samples were collected from the femoral vein of each dog prior to treatment and every 2 weeks after the first day of treatment. Hematology parameters were measured using an automated hematology analyzer (Sysmex, XT-2000iv, Toa Medical Electronics Co. Ltd., Kobe, Japan) using standard methods. Test parameters included hemoglobin (Hb) levels, the hematocrit (Hct) fraction, erythrocyte (RBC) count, leukocyte (WBC) count, neutrophilic granulocyte fraction (NE%), monocyte fraction (MO%), lymphocyte levels (LY%), platelet count (PLT), reticulocyte count (RET%) and RBC morphology. The following clinical chemistry parameters were measured using a Hitachi-7180 Chemistry Analyzer (High-Technologies Corporation, Tokyo, Japan) and standard methods: glucose, blood urea nitrogen, inorganic phosphorus, creatinine, total protein, albumin, calcium, aspartate aminotransferase (AST), alanine aminotransferase, alkaline phosphatase, total bilirubin, creatine kinase (CK), sodium, potassium and chloride.
# beagle dogs [6] = assay: Ultra-structural examination of liver, kidney and heart by transmission electron microscopy; type: in vivo, dog; conditions: weeks 4, 8 and 13; TEM
# Method: as §1, §2
# [7] = Week 4, 6 mg kg^-1 per day (ART p.o., ARM i.m.)
# [8] = Week 8, 6 mg kg^-1 per day (ART p.o., ARM i.m.)
# [9] = Week 13, 6 mg kg^-1 per day (ART p.o., ARM i.m.)
# [10] = Week 17 (after 4-week recovery)
# [11] = both treated groups, no significant differences
# [12] = weeks 4 and 6 post-treatment, vs control group (p<0.01)
smiles,measurement,setting,value
"CO[C@H]1O[C@@H]2O[C@@]3(C)CC[C@H]4[C@H](C)CC[C@@H]([C@H]1C)[C@@]24OO3 [ARM, artemether]",Cardiac conduction system foci (dogs affected/examined),beagle dogs [1]; [7],0
same,Extramedullary hematopoiesis (dogs affected/examined),beagle dogs [1]; [7],2/4
same,Hepatocyte necrosis (dogs affected/examined),beagle dogs [1]; [7],3/4
same,Inhibition of erythropoiesis (dogs affected/examined),beagle dogs [1]; [7],4/4
same,Neuronal necrosis (dogs affected/examined),beagle dogs [1]; [7],0
same,Tubular cell degeneration (dogs affected/examined),beagle dogs [1]; [7],4/4
same,Cardiac conduction system foci (dogs affected/examined),beagle dogs [1]; [8],0
same,Extramedullary hematopoiesis (dogs affected/examined),beagle dogs [1]; [8],3/4
same,Hepatocyte necrosis (dogs affected/examined),beagle dogs [1]; [8],2/4
same,Inhibition of erythropoiesis (dogs affected/examined),beagle dogs [1]; [8],2/4
same,Neuronal necrosis (dogs affected/examined),beagle dogs [1]; [8],2/4
same,Tubular cell degeneration (dogs affected/examined),beagle dogs [1]; [8],3/4
same,Cardiac conduction system foci (dogs affected/examined),beagle dogs [1]; [9],0
same,Extramedullary hematopoiesis (dogs affected/examined),beagle dogs [1]; [9],1/4
same,Hepatocyte necrosis (dogs affected/examined),beagle dogs [1]; [9],0
same,Inhibition of erythropoiesis (dogs affected/examined),beagle dogs [1]; [9],2/4
same,Neuronal necrosis (dogs affected/examined),beagle dogs [1]; [9],4/4
same,Tubular cell degeneration (dogs affected/examined),beagle dogs [1]; [9],2/4
same,Cardiac conduction system foci (dogs affected/examined),beagle dogs [1]; [10],0
same,Extramedullary hematopoiesis (dogs affected/examined),beagle dogs [1]; [10],0
same,Hepatocyte necrosis (dogs affected/examined),beagle dogs [1]; [10],0
same,Inhibition of erythropoiesis (dogs affected/examined),beagle dogs [1]; [10],0
same,Neuronal necrosis (dogs affected/examined),beagle dogs [1]; [10],1/4
same,Tubular cell degeneration (dogs affected/examined),beagle dogs [1]; [10],1/4
same,dogs with neuropathological abnormalities,"beagle dogs [1]; after the 4-week recovery period, mild damage",one of the four dogs
same,histological examination of sternal bone marrow,beagle dogs [1]; [11],mild inhibition of erythropoiesis and a decreased count of mature erythrocytes
same,spleen histology,beagle dogs [1]; [11],extramedullary hematopoiesis was observed in the spleen
same,mean severity score of the lesions in the brain,beagle dogs [1]; score 0 (unaffected) to 4 (multiple degenerative areas per section),2.14
same,light microscopy of liver sections,"beagle dogs [1]; some dogs, characterized as very mild",degenerative hepatocellular changes
same,histopathological changes in the kidneys,beagle dogs [1]; vs control groups,tubular epithelium vacuolation and necrosis
same,dogs with neuropathological abnormalities,"beagle dogs [1]; week 8, two of the four dogs examined",50%
same,dogs with neuropathological abnormalities,"beagle dogs [1]; week 13, four of the four dogs examined",100%
same,solubility character,[2],fat soluble
same,Effect (toxicology),Rats,"Damage of trapezoid nuclei, abnormalities in balance and coordination"
same,AUC,"[3]; both sexes, beagle, dog, plasma, other: ART p.o., ARM i.m., 6 mg/kg, week 8, ARM i.m., dog plasma, read-out: AUC8w",10.9 ± 11.6 ng·h/mL
same,AUC,"[3]; both sexes, beagle, dog, plasma, other: ART p.o., ARM i.m., 6 mg/kg, week four, ARM i.m., dog plasma, read-out: AUC4w",739 ± 209 ng·h/mL
same,AUC(0-t),"[3]; both sexes, beagle, dog, plasma, other: ART p.o., ARM i.m., 6 mg/kg, read-out: AUC93D",71.3 ± 56.6 ng·h/mL
same,Cmax,"[3]; both sexes, beagle, im, week four, 6 mg kg^−1 daily i.m., dog plasma, read-out: C max, w4",219 ± 41.3 ng/mL
same,half-life,"[3]; both sexes, beagle, im, week four, 6 mg kg^−1 daily i.m., dog plasma, read-out: T 1/2, w4 (biological half-life) (converted)",3 ± 1.16 h
same,Tmax,"[3]; both sexes, beagle, im, week four, 6 mg kg^−1 daily i.m., dog plasma, read-out: T max, w4",0.5 ± 0.03 h
same,maximum plasma concentration after dosing,[3]; day 1,90.63 ± 24.99 µg/L
same,maximum plasma concentration after dosing,[3]; week 4,219.10 ± 41.30 µg/L
same,maximum plasma concentration after dosing,[3]; week 8,46.20 ± 13.15 µg/L
same,maximum plasma concentration after dosing,[3]; week 13,43.85 ± 10.79 µg/L
same,Effect (toxicology),Dogs,"Axonal damage in the cerebellar roof, pontine and vestibular nuclei, and in the raphe/ paralemniscal region; hypochromic, microcytic anemia"
same,"absolute or relative weights of brain, heart, liver, spleen, lungs, kidneys, adrenals, thyroid/parathyroids, pancreas, ovaries, testes or prostate","beagle dogs [4]; 6 mg kg^-1 per day, vs relative controls",no statistically significant effects
same,thymus weight,"beagle dogs [4]; weeks 4 and 8, one of the two male dogs, i.m.",mild decrease
same,Clinical chemistry: AST(M),"beagle dogs [5]; Week 13, males, 6 mg kg^-1 per day",↑↑AST(M)
same,serum AST,beagle dogs [5]; [12],significant increases
same,serum CK,beagle dogs [5]; [12],significant increases
same,serum albumin levels,"beagle dogs [5]; weeks 4 and 10, same changes also in peanut oil only group",significant decrease
same,"ultra-structural findings in hepatocytes, myocardial cells and proximal tubules in the kidney",beagle dogs [6],Mitochondrial bending and distortion and swollen vacuoles

# Source: article PMC3989207, “Subchronic Toxicological Study of Two Artemisinin Derivatives in Dogs” (PLoS ONE, 2014)
